From US20100041089A1, “IMPROVED METHOD FOR DETECTING CHEMICAL […]” (priority 2006, published 2010)

Tested on: yeast genes (expressed mRNA)
Test: DNA chip measurement of expressed mRNA of yeast genes after culture with a toxic chemical substance
Format: cell-based, Saccharomyces cerevisiae S288C
Settings: for level of expressed mRNA in the presence of chemical substance / level in the absence of chemical substance: cultured two hours with the chemical substance; for The level of expressed mRNA in the presence of chemical substance/The level of expressed mRNA in the absence of chemical substance: cultured two hours with substance
Procedure, shortened: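 Fluorescence ratio, treated over untreated, read by chip scanner; ratio of two or more counted significant. Cells: S288C yeast, YPD, 25° C, chemical added at log phase for 2 h at growth-inhibiting, sublethal level. Cy3/Cy5-labeled cDNA from oligo-dT-purified mRNA.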

In the case of [Cl][Hg][Cl] [(3), HgCl2], the “level of expressed mRNA in the presence of chemical substance / level in the absence of chemical substance” value (yeast gene YNL058C) is reported as 2.1, the “level of expressed mRNA in the presence of chemical substance / level in the absence of chemical substance” value (yeast gene YNL063W) is reported as 0.9 and the “The level of expressed mRNA in the presence of chemical substance/The level of expressed mRNA in the absence of chemical substance” value (yeast gene YNL074C) is reported as 1.8. For the same compound, the “The level of expressed mRNA in the presence of chemical substance/The level of expressed mRNA in the absence of chemical substance” value (yeast gene YNL092W) was 2.4, the “The level of expressed mRNA in the presence of chemical substance/The level of expressed mRNA in the absence of chemical substance” value (yeast gene YNL115C) was 1.6 and the “The level of expressed mRNA in the presence of chemical substance/The level of expressed mRNA in the absence of chemical substance” value (yeast gene YNL156C) was 0.9. The “level of expressed mRNA in the presence of chemical substance / level in the absence of chemical substance” value (yeast gene YNL176C) was 2.9, the “level of expressed mRNA in the presence of chemical substance / level in the absence of chemical substance” value (yeast gene YNL194C) was 2.0 and the “level of expressed mRNA in the presence of chemical substance / level in the absence of chemical substance” value (yeast gene YNL200C) was 3.6. For the same compound, the “The level of expressed mRNA in the presence of chemical substance/The level of expressed mRNA in the absence of chemical substance” value (yeast gene YNL234W) was 0.6, the “level of expressed mRNA in the presence of chemical substance / level in the absence of chemical substance” value (yeast gene YNL253W) was 0.6 and the “level of expressed mRNA in the presence of chemical substance / level in the absence of chemical substance” value (yeast gene YNL276C) was 1.9. For the same compound, the “The level of expressed mRNA in the presence of chemical substance/The level of expressed mRNA in the absence of chemical substance” value (yeast gene YNL281W) was 2.0, the “The level of expressed mRNA in the presence of chemical substance/The level of expressed mRNA in the absence of chemical substance” value (yeast gene YNL305C) was 2.7 and the “level of expressed mRNA in the presence of chemical substance / level in the absence of chemical substance” value (yeast gene YNR051C) was 1.1. For the same compound, the “The level of expressed mRNA in the presence of chemical substance/The level of expressed mRNA in the absence of chemical substance” value (yeast gene YNR068C) was 2.3, the “level of expressed mRNA in the presence of chemical substance / level in the absence of chemical substance” value (yeast gene YOL026C) was 0.7 and the “The level of expressed mRNA in the presence of chemical substance/The level of expressed mRNA in the absence of chemical substance” value (yeast gene YOL032W) was 2.0. The “The level of expressed mRNA in the presence of chemical substance/The level of expressed mRNA in the absence of chemical substance” value (yeast gene YOL036W) was 1.3, the “The level of expressed mRNA in the presence of chemical substance/The level of expressed mRNA in the absence of chemical substance” value (yeast gene YOL047C) was 1.1 and the “The level of expressed mRNA in the presence of chemical substance/The level of expressed mRNA in the absence of chemical substance” value (yeast gene YOL071W) was 1.7. For the same compound, the “The level of expressed mRNA in the presence of chemical substance/The level of expressed mRNA in the absence of chemical substance” value (yeast gene YOL082W) was 1.6, the “The level of expressed mRNA in the presence of chemical substance/The level of expressed mRNA in the absence of chemical substance” value (yeast gene YOL083W) was 1.2 and the “The level of expressed mRNA in the presence of chemical substance/The level of expressed mRNA in the absence of chemical substance” value (yeast gene YOL117W) was 0.5. For the same compound, the “The level of expressed mRNA in the presence of chemical substance/The level of expressed mRNA in the absence of chemical substance” value (yeast gene YOL131W) was 0.6, the “The level of expressed mRNA in the presence of chemical substance/The level of expressed mRNA in the absence of chemical substance” value (yeast gene YOL150C) was 9.9 and the “The level of expressed mRNA in the presence of chemical substance/The level of expressed mRNA in the absence of chemical substance” value (yeast gene YOL162W) was 1.7. The “The level of expressed mRNA in the presence of chemical substance/The level of expressed mRNA in the absence of chemical substance” value (yeast gene YOR019W) was 0.8, the “level of expressed mRNA in the presence of chemical substance / level in the absence of chemical substance” value (yeast gene YOR022C) was 1.1 and the “level of expressed mRNA in the presence of chemical substance / level in the absence of chemical substance” value (yeast gene YOR087W) was 1.8. For the same compound, the “level of expressed mRNA in the presence of chemical substance / level in the absence of chemical substance” value (yeast gene YOR138C) was 0.7, the “The level of expressed mRNA in the presence of chemical substance/The level of expressed mRNA in the absence of chemical substance” value (yeast gene YOR197W) was 1.1 and the “level of expressed mRNA in the presence of chemical substance / level in the absence of chemical substance” value (yeast gene YOR253W) was 1.0. The “level of expressed mRNA in the presence of chemical substance / level in the absence of chemical substance” value (yeast gene YOR267C) was 1.0, the “level of expressed mRNA in the presence of chemical substance / level in the absence of chemical substance” value (yeast gene YOR325W) was 1.5 and the “level of expressed mRNA in the presence of chemical substance / level in the absence of chemical substance” value (yeast gene YPL005W) was 1.0. For the same compound, the “The level of expressed mRNA in the presence of chemical substance/The level of expressed mRNA in the absence of chemical substance” value (yeast gene YPL087W) was 3.0, the “level of expressed mRNA in the presence of chemical substance / level in the absence of chemical substance” value (yeast gene YPL150W) was 1.6 and the “level of expressed mRNA in the presence of chemical substance / level in the absence of chemical substance” value (yeast gene YPL152W) was 1.4. The “level of expressed mRNA in the presence of chemical substance / level in the absence of chemical substance” value (yeast gene YPL168W) was 0.5, the “level of expressed mRNA in the presence of chemical substance / level in the absence of chemical substance” value (yeast gene YPL180W) was 0.7 and the “level of expressed mRNA in the presence of chemical substance / level in the absence of chemical substance” value (yeast gene YPL188W) was 2.9. For the same compound, the “The level of expressed mRNA in the presence of chemical substance/The level of expressed mRNA in the absence of chemical substance” value (yeast gene YPL196W) was 1.3, the “The level of expressed mRNA in the presence of chemical substance/The level of expressed mRNA in the absence of chemical substance” value (yeast gene YPL206C) was 1.4 and the “level of expressed mRNA in the presence of chemical substance / level in the absence of chemical substance” value (yeast gene YPL221W) was 1.0. For the same compound, the “The level of expressed mRNA in the presence of chemical substance/The level of expressed mRNA in the absence of chemical substance” value (yeast gene YPL222W) was 0.8, the “level of expressed mRNA in the presence of chemical substance / level in the absence of chemical substance” value (yeast gene YPL225W) was 1.0 and the “The level of expressed mRNA in the presence of chemical substance/The level of expressed mRNA in the absence of chemical substance” value (yeast gene YPR023C) was 1.2. The “level of expressed mRNA in the presence of chemical substance / level in the absence of chemical substance” value (yeast gene YPR049C) was 1.5, the “level of expressed mRNA in the presence of chemical substance / level in the absence of chemical substance” value (yeast gene YPR146C) was 1.3 and the “level of expressed mRNA in the presence of chemical substance / level in the absence of chemical substance” value (yeast gene YPR148C) was 0.8. For the same compound, the “The level of expressed mRNA in the presence of chemical substance/The level of expressed mRNA in the absence of chemical substance” value (yeast gene YPR151C) was 1.5 and the “level of expressed mRNA in the presence of chemical substance / level in the absence of chemical substance” value (yeast gene YPR172W) was 2.2.
